Data set [1] concerns Fluc mRNA. Briefly: In vivo delivery of luciferase mRNA (Fluc mRNA) by lipid nanoparticles, living imaging. Also on record: species or system BALB/c mice. The settings on record: after 12 hours, total fluorescence. How it is done: (§1) The amino lipid compounds of the present disclosure were mixed with DOPE, cholesterol, and PEG2000-DMG in a molar ratio of 45:10:42.5:2.5 and dissolved in absolute ethanol. By using a microinjection pump, the resultant ethanol solution and a sodium acetate solution (50 mM, pH=4.0) were mixed in a ratio of 1:3 in a microfluidic chip to prepare a crude solution of lipid nanoparticles, which were then dialyzed in 1×PBS at a controlled temperature of 4° C. for 6 h using a dialysis box (Fisher, MWCO 20,000), and filtered through a 0.22 μm microporous filter membrane before use.
(§2) The formulation method was the same as the formulation method 1, except that the molar ratio of the amino lipid compounds to DSPC, cholesterol and PEG2000-DMG was 50:10:38.5:1.5.
The lipid nanoparticles prepared according to the above formulation method 1 or 2 were used in the biological experiments below for evaluating the performances of in vivo delivery of luciferase mRNA (Fluc mRNA). For the lipid nanoparticles obtained in the formulation method 1, the mass ratio of the amino lipid compounds to the luciferase mRNA was about 10:1, and the lipid nanoparticles were administered subcutaneously; and the lipid nanoparticles obtained in the formulation method 2 were administered by tail vein and intramuscular injection.
6-week-old female BALB/c mice weighed about 20 g were selected and fed in a SPF-grade feeding room. Animal tests were conducted strictly according to the guidelines of National Health institutions and the requirements of animal ethics.
(§3) 9 mice were assigned randomly to each group and injected with the lipid nanoparticles at a dosage of 0.5 mg/kg by three administration routes, i.e., subcutaneous, intramuscular and tail vein injection (three mice for each administration route). After 12 hours, D-luciferin potassium salt (200 μL, 10 mg/mL) was injected into each mouse through the tail vein. After 10 minutes, the total fluorescence intensity of each mouse was observed on a living imaging system (IVIS-200, Xenogen) and taken photographs for record. The expression intensities of Fluc mRNA delivered by representative amino lipid compounds through the three administration routes are shown in Table 2-4. MC3 was used as a control and SM102 was used as a comparative compound.

Another data set deals with OVA protein. Briefly: In vivo delivery of ovalbumin mRNA and immunity, IgG ELISA. The arrangement: species or system BALB/c mice. The settings on record: OVA mRNA LNP, injected intramuscularly 0.5 mg/kg Day 0 and Day 7, serum Day 21, FIG. 1. How it is done: as §1, with “compounds of formula (I)” for “compounds”, “of 50:10:38.5:1.5” for “of 45:10:42.5:2.5”, “ethanol. Ovalbumin mRNA (OVA mRNA) was dissolved in a sodium acetate solution (50 mM, pH=4.0).” for “ethanol.”, “and the” for “and a”
The mass ratio of the amino lipid compounds to the ovalbumin mRNA (OVA mRNA) in the obtained lipid nanoparticles was about 10:1.
6-week-old female BALB/c mice weighed about 20 g were selected and fed in a SPF-grade feeding room. Animal tests were conducted strictly according to the guidelines of National Health institutions and the requirements of animal ethics. […]
A flat-bottomed 96-well plate (Nunc) was pre-coated with OVA protein at a concentration of 0.5 μg protein per well in a 50 mM carbonate buffer (pH 9.6) at 4° C., and allowed to stay overnight, and then blocked with 5% glycine. […] After addition of the HRP substrate, the absorbance at 450 nm was measured on an ELISA plate reader (Bio-Rad).

A short description of data set [2]: Stability of lipid nanoparticles at 25° C., DLS particle size and PDI. The data set is classed as physicochemical. The settings on record: for particle size: preparation day (week 0). The protocol:
as §1
(§4) Preparation of Lipid Nanoparticles: The Formulation Method 1 was Used to Prepare LNPs for Subcutaneous Administration.
Characterization of lipid nanoparticles: The particle size and PDI of the prepared lipid nanoparticles were measured by Nano-ZSZEN 3600 (Malvern). 40 μL of the LNP solution was taken for particle size measurement with circulation for three times, 30 seconds for each circulation.
(§5) The particle size measurements were carried out on the day of preparation (week 0), and after one week (week 1), two weeks (week 2), and four weeks (week 4) of storage at 25° C., and the expression intensities of Fluc mRNA delivered by subcutaneous administration were determined on the day of preparation (week 0) and after four weeks (week 4).

Data set [3] concerns Fluc mRNA. Nature of the data set: Activity of lipid nanoparticles of formulation method 2, Fluc mRNA by intramuscular administration. The data set is classed as in vivo, BALB/c mice. The protocol:
as §2, §3
Preparation of Lipid Nanoparticles: LNPs were Prepared Using the Formulation Method 2 for Intramuscular Administration.
The measurement method was the same as that of Test Example 1.

The subject of data set [4] is Fluc mRNA. Nature of the data set: Stability of lipid nanoparticles at 25° C., subcutaneous expression of Fluc mRNA. It is filed as in vivo, mice. To be noted: for Fluc expression change after four weeks: 25° C., week 4 versus week 0. The protocol: as §1, §3, §4, §5
For a further data set, the system named is influenza mRNA vaccine. Nature of the data set: In vivo delivery of influenza mRNA vaccine and immunity, IgG ELISA. The arrangement: species or system BALB/c mice. To be noted: influenza mRNA LNP, injected subcutaneously 0.5 mg/kg Day 0 and Day 7, serum Day 21, FIG. 2.
The test system of another data set is liver. Nature of the data set: Targeting assay, fluorescence in liver after intramuscular injection. The data set is classed as in vivo, mice. To be noted: 15 μg mRNA per animal, 6 h after injection, dissected liver. How it is done: The lipids were mixed with DSPC, CHO-HP, M-DMG2000 (i.e. PEG2000-DMG) in a molar ratio of 50:10:38.5:1.5 and dissolved in absolute ethanol. mRNA was dissolved in a sodium acetate solution (0.2M, pH=5.0). The samples of various prescriptions were prepared at a water phase:alcohol phase=9 ml/min: 3 ml/min by using a microfluidic equipment (MPE-L2) and a chip (SN.000035). The two phases were mixed by injecting them into the microfluidic chip according to the interface requirements, and then the drug solution was loaded into a 100KD dialysis bags, immersed in a beaker containing 1 L dialysis solution and wrapped with aluminum foil, and dialyzed at 100 rpm for 1 h at room temperature, and then the dialysis solution was replaced and the dialysis continued for 1 h.
Formulation of dialysis solution: 1×PBS+8% sucrose solution: 2 packets of 1×PBS powder were taken into a beaker, dissolved with 2 L DEPC water, added with 160 g of sucrose additionally, and mixed to obtain the 1×PBS+8% sucrose solution.
The mass ratio of mRNA:Lipids in the obtained lipid nanoparticles were about 1:10.
Fluorescent protein-encoding mRNA-LNP preparations containing Compound (I-6-II), MC3 or SM102, respectively were prepared by using the formulation method of mRNA lipid nanoparticle (LNP) preparations as described above, selecting a fluorescent protein-encoding mRNA as the mRNA and the compound (I-6-II), MC3 or SM102, respectively as the lipid.
Each preparation to be tested was administered to mice by intramuscular injection, with each animal receiving 15 μg mRNA preparation sample. 6 h after sample injection, the mice were anesthetized by isoflurane inhalation, and injected intraperitoneally with 200 μL of D-Luciferin (concentration 10 mg/ml) luciferase development substrate. […] After development of living imaging of the intramuscularly injected animals, they were immediately dissected, followed by observation of the fluorescence in the liver immediately after the dissection.

Where [5] appears, read: intramuscular injection, formulation method 2, 0.5 mg/kg.
[6] abbreviates: subcutaneous administration, formulation method 1, 0.5 mg/kg.
The mark [7] stands for this setting: tail vein administration, formulation method 2, 0.5 mg/kg.
Where [8] appears, read: week 0, subcutaneous administration.
[9] abbreviates: week 4, storage at 25° C., subcutaneous administration.

As to `CCCCCCCCCCCOC(=O)CCCCCN(CCCCCCCC(=O)OC(CCCCCCCC)CCCCCCCC)C1CC(O)C1` (stereo not drawn) [Compound 2], the results for the “Fluorescence intensity (expression intensity of Fluc mRNA)” value in the data set with Fluc mRNA [1] (setting [5]), with Fluc mRNA [1] (setting [6]) and in the data set on Fluc mRNA [1] (setting [7]) were 1.3E + 07, 1.9E + 08 and 2.9E + 06, respectively. The IgG antibody titers entry with OVA protein was “comparable to those of MC3 and SM102”.

Consider `CCCCCCCCCCCOC(=O)CCCCCN(CCCCCCCC(=O)OC(CCCCCCCC)CCCCCCCC)C1CCCC(O)C1` (stereo not drawn) [Compound 7], for which the “Fluorescence intensity (expression intensity of Fluc mRNA)” value was 3.7E + 07 with Fluc mRNA [1] (setting [5]), 2.9E + 08 with Fluc mRNA [1] (setting [6]), 2.9E + 07 in the data set on Fluc mRNA [1] (setting [7]) and 3.7E + 07 with Fluc mRNA [3]. In the data set with OVA protein, the IgG antibody titers entry is “stronger immune response”. Further, the “particle size change after four weeks of storage” value in data set [2] (25° C., week 4 versus week 0) is “did not increase significantly”. For the same molecule, the particle size result in data set [2] is listed as “about 100 nm”. Further, the Z-Average in data set [2] (week 0 (day of preparation)) was 95 nm·days; in data set [2] (week 1, storage at 25° C.), 105 nm·days; in data set [2] (week 2, storage at 25° C.) it was 115 nm·days; in data set [2] (week 4, storage at 25° C.), 120 nm·days. Also, the PDI is given as 0.05 in data set [2] (week 1, storage at 25° C.) and 0.06 in data set [2] (week 2, storage at 25° C.). In the data set with Fluc mRNA [4], the “Fluc expression change after four weeks” value is recorded as “did not decrease significantly”. The “Fluc Expression intensities” value is given as 2.9E+08 in the data set with Fluc mRNA [4] (setting [8]) and 2.6E+08 with Fluc mRNA [4] (setting [9]).

On to `CCCCCCCC/C=C\CCCCCCCC(=O)OCCCCCCCCN(CCCCCCOC(=O)C(CCCCCC)CCCCCCCC)C1CCCC(O)C1` (stereo not drawn) [Compound 10], for which the “Fluorescence intensity (expression intensity of Fluc mRNA)” value with Fluc mRNA [1] (setting [6]) is listed as 1.1E + 07. For the same molecule, the IgG antibody titers result in the data set on influenza mRNA vaccine was “comparable to those of SM102”.

As for `CCCCC/C=C\C/C=C\CCCCCCCCC(CCCCCCCC/C=C\C/C=C\CCCCC)OC(=O)CCCN(C)C` [MC3, reference compound], the “Fluorescence intensity (expression intensity of Fluc mRNA)” value in the data set on Fluc mRNA [1] (setting [5]) is recorded as 2.7E + 07; in the data set on Fluc mRNA [1] (setting [6]) it was 3.7E + 06; with Fluc mRNA [1] (setting [7]), 2.7E + 07. Moreover, the “fluorescence intensity in liver” value with liver is 1.23E+05. The IgG antibody titers entry with influenza mRNA vaccine is listed as “lowest IgG antibody titers”.

On to `CCCCCCCCCOC(=O)CCCCCCCN(CCO)CCCCCCCC(=O)OC(CCCCCCCC)CCCCCCCC` [SM102, reference compound], for which the “Fluorescence intensity (expression intensity of Fluc mRNA)” value is recorded as 4.6E + 07 in the data set on Fluc mRNA [1] (setting [5]), 2.4E + 07 with Fluc mRNA [1] (setting [6]) and 7.4E + 06 with Fluc mRNA [1] (setting [7]). Also, the particle size result in data set [2] is reported as “about 100 nm”. The Z-Average was determined as 120 nm·days in data set [2] (week 0 (day of preparation)); 145 nm·days in data set [2] (week 1, storage at 25° C.); 195 nm·days in data set [2] (week 2, storage at 25° C.); 245 nm·days in data set [2] (week 4, storage at 25° C.). For the same molecule, the PDI in data set [2] (week 1, storage at 25° C.) came to 0.16; in data set [2] (week 2, storage at 25° C.), 0.21; in data set [2] (week 4, storage at 25° C.), 0.28. Moreover, the “fluorescence intensity in liver” value with liver is reported as 3.23E+06. Besides, the “Fluc expression change after four weeks” value with Fluc mRNA [4] is recorded as “decreased significantly”. Also, the “Fluc Expression intensities” value came out at 2.4E+07 in the data set with Fluc mRNA [4] (setting [8]) and 3.6E+06 in the data set with Fluc mRNA [4] (setting [9]).

Values taken from patent publication US20260015311A1, “AMINO LIPID COMPOUND, PREPARATION METHOD THEREFOR, AND USE THEREOF” (SHENZHEN SHENXIN BIOTECHNOLOGY CO., LTD., priority 2022, published 2026).
